Converted amounts (≈) assume the structure as drawn.
system: A. baumannii strain ATCC19606; experiment: Minimum inhibitory concentration (MIC) determination, microbroth dilution (CLSI); format: cell-based; conditions: Acinetobacter baumannii; A. baumannii ATCC19606; CAMHB; read after 20 hours; >=80% growth inhibition; read-out: ATCC19606 MIC
How it was run: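 After 20 h at 35±2 °C, MIC taken visually and by OD 600 nm as the lowest concentration giving ≥80% growth inhibition. Bacteria (~5×10^5 CFU/ml) were tested per CLSI microbroth dilution against twofold serial compound dilutions in cation-adjusted Mueller Hinton broth.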

Q: With `CN1C(=O)[C@H](CCCCN)NC(=O)[C@H](CCCN)NCc2cccnc2Sc2c(Cl)ccc(F)c2CNC(=O)[C@@H]1Cc1c[nH]c2ccccc12` [Example 54, (11S,14S,17S)-14-(4-Amino-butyl)-1-(3-amino-propyl)-25-chloro-22-fluoro-17-(1H-indol-3-ylmethyl)-16-methyl-2-thia-4,10,13,16,19-pentaaza-tricyclo[19.4.0.0*3,8*]pentacosa-1(25),3(8),4,6,21,23-hexaene-12,15,18-trione] as the compound, how does the MIC read?
A: 1 µg/mL (≈ 1.38 µM)

Q: For `Cc1cc(Cl)cc2c1Sc1ccccc1CN[C@@H](CCCN)C(=O)N[C@@H](CCCCN)C(=O)N(C)[C@@H](Cc1c[nH]c3ccccc13)C(=O)NC2` [Example 55, (12S,15S,18S)-15-(4-Amino-butyl)-18-(3-amino-propyl)-6-chloro-12-(1H-indol-3-ylmethyl)-4,13-dimethyl-2-thia-10,13,16,19-tetraaza-tricyclo[19.4.0.0*3,8*]pentacosa-1(25),3,5,7,21,23-hexaene-11,14,17-trione], which MIC is on record?
A: 0.5 µg/mL (≈ 0.696 µM)

Q: `CN1C(=O)[C@H](CCCCN)NC(=O)[C@H](CCCN)NCc2cc(F)ccc2Sc2ccccc2CNC(=O)[C@@H]1Cc1c[nH]c2ccccc12` [Example 56, (12S,15S,18S)-15-(4-Amino-butyl)-18-(3-amino-propyl)-23-fluoro-12-(1H-indol-3-ylmethyl)-13-methyl-2-thia-10,13,16,19-tetraaza-tricyclo[19.4.0.0*3,8*]pentacosa-1(25),3,5,7,21,23-hexaene-11,14,17-trione] was tested. Which MIC did it give?
A: 16 µg/mL (≈ 23.3 µM)

Q: With `Cc1[nH]c2ccccc2c1C[C@H]1C(=O)NCc2cc(Cl)ccc2Sc2ccccc2CN[C@@H](CCCN)C(=O)N[C@@H](CCCCN)C(=O)N1C` [Example 57, (12S,15S,18S)-15-(4-Amino-butyl)-18-(3-amino-propyl)-6-chloro-13-methyl-12-(2-methyl-1H-indol-3-ylmethyl)-2-thia-10,13,16,19-tetraaza-tricyclo[19.4.0.0*3,8*]pentacosa-1(21),3,5,7,22,24-hexaene-11,14,17-trione] as the compound, how does the MIC read?
A: 0.5 µg/mL (≈ 0.696 µM)

Q: `Cc1cccc2c1Sc1ccccc1CN[C@@H](CCCN)C(=O)N[C@@H](CCCCN)C(=O)N(C)[C@@H](Cc1c(C)[nH]c3ccccc13)C(=O)NC2` [Example 58, (12S,15S,18S)-15-(4-Amino-butyl)-18-(3-amino-propyl)-4,13-dimethyl-12-(2-methyl-1H-indol-3-ylmethyl)-2-thia-10,13,16,19-tetraaza-tricyclo[19.4.0.0*3,8*]pentacosa-1(21),3,5,7,22,24-hexaene-11,14,17-trione] was tested. Which MIC did it give?
A: 0.5 µg/mL (≈ 0.716 µM)

Q: With `Cc1[nH]c2ccccc2c1C[C@H]1C(=O)NCc2cc(Cl)cc(Cl)c2Sc2ccccc2CN[C@@H](CCCN)C(=O)N[C@@H](CCCCN)C(=O)N1C` [Example 59, (12S,15S,18S)-15-(4-Amino-butyl)-18-(3-amino-propyl)-4,6-dichloro-13-methyl-12-(2-methyl-1H-indol-3-yl)-2-methyl)-2-thia-10,13,16,19-tetraaza-tricyclo[19.4.0.0*3,8*]pentacosa-1(21),3,5,7,22,24-hexaene-11,14,17-trione] as the compound, how does the MIC read?
A: 0.5 µg/mL (≈ 0.664 µM)

Q: How did the MIC turn out when `C[C@@H]1NC(=O)[C@H](Cc2c[nH]c3ccccc23)N(C)C(=O)[C@H](CCCCN)NC(=O)[C@H](CCCN)NCc2ccccc2Sc2c(Cl)cccc21` [Example 60, (9S,12S,15S,18S)-15-(4-Amino-butyl)-18-(3-amino-propyl)-4-chloro-12-(1H-indol-3-ylmethyl)-9,13-dimethyl-2-thia-10,13,16,19-tetraaza-tricyclo[19.4.0.0*3,8*]pentacosa-1(25),3,5,7,21,23-hexaene-11,14,17-trione] was run?
A: 2 µg/mL (≈ 2.78 µM)

Q: Which MIC does the source give for `COc1ccc2c(c1)CNC(=O)[C@H](Cc1c[nH]c3ccccc13)N(C)C(=O)[C@H](CCCCN)NC(=O)[C@H](CCCN)NCc1cccnc1S2` [Example 61, (11S,14S,17S)-14-(4-Amino-butyl)-11-(3-amino-propyl)-17-(1H-indol-3-ylmethyl)-23-methoxy-16-methyl-2-thia-4,10,13,16,19-pentaaza-tricyclo[19.4.0.0*3,8*]pentacosa-1(25),3,5,7,21,23-hexaene-12,15,18-trione] here?
A: 4 µg/mL (≈ 5.71 µM)

Q: For `CN1C(=O)[C@H](CCCCN)NC(=O)[C@H](CCCN)NCc2cccnc2Sc2c(Cl)cc(C(F)(F)F)cc2CNC(=O)[C@@H]1Cc1c[nH]c2ccccc12` [Example 62, (11S,14S,17S)-14-(4-Amino-butyl)-11-(3-amino-propyl)-25-chloro-17-(1H-indol-3-ylmethyl)-16-methyl-23-trifluoromethyl-2-thia-4,10,13,16,19-pentaaza-tricyclo[19.4.0.0*3,8*]pentacosa-1(25),3,5,7,21,23-hexaene-12,15,18-trione], which MIC is on record?
A: 0.12 µg/mL (≈ 0.155 µM)

Q: For `CN1C(=O)[C@H](CCCCN)NC(=O)[C@H](CCCN)NCc2ccccc2Sc2cnccc2CNC(=O)[C@@H]1Cc1c[nH]c2ccccc12` [Example 63, (12S,15S,18S)-15-(4-Amino-butyl)-18-(3-amino-propyl)-12-(1H-indol-3-ylmethyl)-13-methyl-2-thia-5,10,13,16,19-pentaaza-tricyclo[19.4.0.0*3,8*]pentacosa-1(25),3,5,7,21,23-hexaene-11,14,17-trione], which MIC is on record?
A: 32 µg/mL (≈ 47.7 µM)

Q: With `CN1C(=O)[C@H](CCCCN)NC(=O)[C@H](CCCN)NCc2cc(F)ccc2Sc2c(Cl)cccc2CNC(=O)[C@@H]1Cc1c[nH]c2ccccc12` [Example 64, (12S,15S,18S)-15-(4-Amino-butyl)-18-(3-amino-propyl)-4-chloro-23-fluoro-12-(1H-indol-3-ylmethyl)-13-methyl-2-thia-10,13,16,19-tetraaza-tricyclo[19.4.0.0*3,8*]pentacosa-1(25),3,5,7,21,23-hexaene-11,14,17-trione] as the compound, how does the MIC read?
A: 32 µg/mL (≈ 44.3 µM)

Q: How did the MIC turn out when `Cc1cccc2c1Sc1ccc(F)cc1CN[C@@H](CCCN)C(=O)N[C@@H](CCCCN)C(=O)N(C)[C@@H](Cc1c[nH]c3ccccc13)C(=O)NC2` [Example 65, (12S,15S,18S)-15-(4-Amino-butyl)-18-(3-amino-propyl)-23-fluoro-12-(1H-indol-3-ylmethyl)-4,13-dimethyl-2-thia-10,13,16,19-tetraaza-tricyclo[19.4.0.0*3,8*]pentacosa-1(25),3,5,7,21,23-hexaene-11,14,17-trione] was run?
A: 32 µg/mL (≈ 45.6 µM)

Q: `CCc1ccc2c(c1)CNC(=O)[C@H](Cc1c[nH]c3ccccc13)N(C)C(=O)[C@H](CCCCN)NC(=O)[C@H](CCCN)NCc1ccccc1S2` [Example 66, (12S,15S,18S)-15-(4-Amino-butyl)-18-(3-amino-propyl)-6-ethyl-12-(1H-indol-3-ylmethyl)-13-methyl-2-thia-10,13,16,19-tetraaza-tricyclo[19.4.0.0*3,8*]pentacosa-1(25),3,5,7,21,23-hexaene-11,14,17-trione] was tested. Which MIC did it give?
A: 0.5 µg/mL (≈ 0.716 µM)

Q: With `CN1C(=O)[C@H](CCCCN)NC(=O)[C@H](CCCN)NCc2cccnc2Sc2c(Cl)cc(Cl)cc2CNC(=O)[C@@H]1Cc1c[nH]c2ccccc12` [Example 67, (11S,14S,17S)-14-(4-Amino-butyl)-11-(3-amino-propyl)-23,25-dichloro-17-(1H-indol-3-ylmethyl)-16-methyl-2-thia-4,10,13,16,19-pentaaza-tricyclo[19.4.0.0*3,8*]pentacosa-1(25),3,5,7,21,23-hexaene-12,15,18-trione] as the compound, how does the MIC read?
A: 0.12 µg/mL (≈ 0.162 µM)

Q: `CN1C(=O)[C@H](CCCCN)NC(=O)[C@H](CCCN)NCc2cccnc2Sc2c(C(F)(F)F)ccc(Cl)c2CNC(=O)[C@@H]1Cc1c[nH]c2ccccc12` [Example 68, (11S,14S,17S)-14-(4-Amino-butyl)-11-(3-amino-propyl)-22-chloro-17-(1H-indol-3-ylmethyl)-16-methyl-25-trifluoromethyl-2-thia-4,10,13,16,19-pentaaza-tricyclo[19.4.0.0*3,8*]pentacosa-1(25),3,5,7,21,23-hexaene-12,15,18-trione] was tested. Which MIC did it give?
A: 0.5 µg/mL (≈ 0.647 µM)

Q: With `CN1C(=O)[C@H](CCCCN)NC(=O)[C@H](CCCN)NCc2ccccc2Sc2ccc(-c3ccccc3)cc2CNC(=O)[C@@H]1Cc1c[nH]c2ccccc12` [Example 69, (12S,15S,18S)-15-(4-Amino-butyl)-18-(3-amino-propyl)-12-(1H-indol-3-ylmethyl)-13-methyl-6-phenyl-2-thia-10,13,16,19-tetraaza-tricyclo[19.4.0.0*3,8*]pentacosa-1(25),3,5,7,21,23-hexaene-11,14,17-trione] as the compound, how does the MIC read?
A: 4 µg/mL (≈ 5.36 µM)

Q: With `CN1C(=O)[C@H](CCCCN)NC(=O)[C@H](CCCN)NCc2ccccc2Sc2ccc(C(C)(C)C)cc2CNC(=O)[C@@H]1Cc1c[nH]c2ccccc12` [Example 70, (12S,15S,18S)-15-(4-Amino-butyl)-18-(3-amino-propyl)-6-tert-butyl-12-(1H-indol-3-ylmethyl)-13-methyl-2-thia-10,13,16,19-tetraaza-tricyclo[19.4.0.0*3,8*]pentacosa-1(25),3,5,7,21,23-hexaene-11,14,17-trione] as the compound, how does the MIC read?
A: 2 µg/mL (≈ 2.75 µM)

Q: Which MIC does the source give for `COc1ccc2c(c1)CNC(=O)[C@H](Cc1c(C)[nH]c3ccccc13)N(C)C(=O)[C@H](CCCCN)NC(=O)[C@H](CCCN)NCc1ccccc1S2` [Example 71, (12S,15S,18S)-15-(4-Amino-butyl)-18-(3-amino-propyl)-6-methoxy-13-methyl-12-(2-methyl-1H-indol-3-ylmethyl)-2-thia-10,13,16,19-tetraaza-tricyclo[19.4.0.0*3,8*]pentacosa-1(21),3,5,7,22,24-hexaene-11,14,17-trione] here?
A: 0.5 µg/mL (≈ 0.7 µM)

Q: With `CC(C)c1ccc2c(c1)CNC(=O)[C@H](Cc1c[nH]c3ccccc13)N(C)C(=O)[C@H](CCCCN)NC(=O)[C@H](CCCN)NCc1ccccc1S2` [Example 72, (12S,15S,18S)-15-(4-Amino-butyl)-18-(3-amino-propyl)-12-(1H-indol-3-ylmethyl)-6-isopropyl-13-methyl-2-thia-10,13,16,19-tetraaza-tricyclo[19.4.0.0*3,8*]pentacosa-1(25),3,5,7,21,23-hexaene-11,14,17-trione] as the compound, how does the MIC read?
A: 64 µg/mL (≈ 89.9 µM)

From patent US10030047B2 (Hoffmann-La Roche Inc., priority 2015, dated 2018)
